Source: patent publication US20230167437A1, “COMPOSITIONS FOR TREATING CANCER WITH KRAS MUTATIONS AND USES THEREOF” (Aadigen, LLC, priority 2020, published 2023)

Tests used:
Format in all cases: cell-based, human
[1] = tested on: KRAS 34G>T mutant G12C; assay: Indel frequencies at the endogenous target sequences (T7E1 / deep sequencing) after ADGN/Cas9 mRNA/gRNA transfection; conditions: for indel frequencies: deep sequencing, 72 hours after transfection, Cas9 mRNA 0.1 μg, gRNA 0.2 μg; for indel editing and disruption of G12C mutant KRAS (FIG. 3A): Mia-PACA, H23, H358 vs HT29 and PANC1 cells
Description: (§1) Complex formation with mRNA:gRNA: ADGN peptide/mRNA/gRNA particles were prepared at a 20:1:1 molar ratio. ADGN/Cas9mRNA/sgRNA complexes were prepared at a 20/1/1 molar ratio with 0.5 μg mRNA: 1.5 μg sgRNA and 5% Glucose or DMEM (example for 96 well plates). […] Premixed Cas9 mRNA/gRNA were prepared in sterile water at room temperature in a glass vial (1-4 ml). ADGN-peptide solution was added dropwise (1 drop/sec) under magnetic agitation at 400 rpm to obtain a 1:2 ratio, and incubated for 30 min at room temperature or 37° C. Just before transfection, 150 μl Glucose or DMEM was added and the solution was mixed under magnetic agitation at 400 rpm for 1 minute. Then the solution was incubated for 5 min at 37° C. Then the complexes was ready for cell transfection or IV administration. Prior to IV administration, complexes were diluted in sucrose 5% solution.
(§2) Transfection protocol. The following protocols are reported for 24/48/96 well plate format transfection. Cells should be trypsinized and seeded a day prior transfection Cells were cultured in Dulbecco's Modified Eagle's Medium (DMEM), supplemented with 2 mM glutamine, 1% antibiotics (streptomycin 10,000 μg/mL, penicillin, 10,000 IU/mL) and 10% (w/v) foetal calf serum (FCS), at 37° C. in a humidified atmosphere containing 5% CO2. 96 well plates seeded with 50,000 cells, the day prior transfection, grown to 60-80% confluence and set up to be at around 70% confluence at the day of transfection. Before transfection, cells are washed twice with DMEM (without FBS and pen/strep) (100 μl/well). Cells were then overlaid with 25 μl of complex solution, mixed gently and incubated for 10 min at 37° C.+5% CO2. 50 μl of fresh DMEM (without FBS and Antibiotics) was added and cells were incubated for 2 h at 37° C.+5% CO2 (time of exposure can be adjusted based on sensitivity of the cells). 250 μL of DMEM (containing 10% FCS and 1% antibiotics) were then added without removing the overlay of ADGN peptide/mRNA complexes. Cells were returned to the incubator (37° C., 5% CO2) and analyzed 48 hours to 72 hours post transfection.
(§3) Eight different gRNAs targeting KRAS 34G>T mutant G12C (gRNA34T1, gRNA34T2, gRNA34T3, gRNA34T4, gRNA34T5, gRNA34T6, gRNA34T7 and gRNA34T8) were evaluated on MIA-PACA, H23, H358, H29 and PANC1 cells. Cas9 mRNA (0.1 μg) and gRNA (0.2 μg) were associated with ADGN peptide at molar ratio 20/1 (peptide/nucleic acid). MIA-PACA, H23, H358, PANC1 and HT29 cells were cultured in 48 well plate format and treated with free mRNACas9-gRNA, or ADGN/mRNACas9:gRNA complex. Indel frequencies at the endogenous target sequences was evaluated 72 hours after transfection by either T7E1 method or deep sequencing. Cell proliferation was analyzed over a period of 5 days using CellTiter Glow kits on GlowMax (Promega).
(§4) In order to confirm the specificity of sgRNAs targeting G12V, G12C or G12D KRAS mutation, gRNA35T3 targeting G12V, gRNA34T6 targeting G12C, and gRNA35A5 targeting G12D were evaluated on a large panel of cancer cells harboring different KRAS mutations including SW403, SW480, PANC1, PK-45H, PK-1, MIA-PACA, H23, H358, HT-29, HS-68 and LS513. Cas9 mRNA (0.2 μg) and gRNA (0.4 μg) were associated with ADGN peptide at molar ratio 20/1 (peptide/nucleic acid). Cells were cultured in 48 well plate format and treated with free mRNACas9-gRNA, or ADGN/mRNACas9:gRNA complex. Indel frequencies at the endogenous target sequences was evaluated 72 hours after transfection by either T7E1 method and cell proliferation was analyzed over a period of 5 days using CellTiter Glow kits on GlowMax (Promega).

[2] = tested on: Mia-PACA, H23 and H358 cells; assay: Cell proliferation over 5 days (CellTiter Glow); conditions: Mia-PACA, H23, H358 vs KRAS WT HT29 or HS-68 and PANC1 cells
Description: as §2, §3

[3] = tested on: KRAS 35G>A mutant G12D; assay: Indel frequencies at the endogenous target sequences (T7E1 / deep sequencing) after ADGN/Cas9 mRNA/gRNA transfection; conditions: for disruption of G12D mutant KRAS (FIG. 2A): G12D cancer cells vs wild type KRAS cells (HT29 or HS-68); for indel frequencies: deep sequencing, 72 hours after transfection, Cas9 mRNA 0.1 μg, gRNA 0.2 μg
Description: as §1, §2
(§5) Nine different gRNAs targeting KRAS 35G>A mutant G12D (gRNA35A1, gRNA35A2, gRNA35A3, gRNA35A4, gRNA35A5, gRNA35A6; gRNA35A7, gRNA35A8, gRNA35A9) were evaluated on LS513, Panc1, PK-45H, and PK1 cancer cells harboring G12D KRAS mutation. Cas9 mRNA (0.1 μg) and gRNA (0.2 μg) were associated with ADGN-peptide at molar ratio 20/1 (peptide/nucleic acid). LS513, Panc1, PK-45H, PK1, HS-68 and HT-29 cells were cultured in 48 well plate format and treated with free mRNACas9-gRNA, or ADGN/mRNACas9:gRNA complex. Indel frequencies at the endogenous target sequences was evaluated 72 hours after transfection by either T7E1 method or deep sequencing. Cell proliferation was analyzed over a period of 5 days using CellTiter Glow kits on GlowMax (Promega).
as §4

[4] = tested on: wild type KRAS; assay: as above; conditions: deep sequencing, 72 hours after transfection, Cas9 mRNA 0.1 μg, gRNA 0.2 μg
Description: as §1, §2
(§6) Nine different gRNAs targeting KRAS 35G>T mutant G12V (gRNA35T1, gRNA35T2, gRNA35T3, gRNA35T4, gRNA35T5, gRNA35T6, gRNA35T7, gRNA35T8 and gRNA35T9 (see FIG. 18)) were evaluated on SW403 and SW480 cancer cells harboring G12V KRAS mutation. Cas9 mRNA (0.15 μg) and gRNA (0.2 μg) were associated with ADGN-peptides as reported in experimental procedure. SW403, SW480 and HT-29 cells were cultured in 48 well plate format and treated with free mRNACas9-gRNA, or ADGN-100/mRNACas9:gRNA complex. Indel frequencies at the endogenous target sequences was evaluated 72 hours after transfection by either T7E1 method and by deep sequencing. Cell proliferation was analyzed over a period of 5 days using CellTiter Glow kits on GlowMax (Promega).
as §5

[5] = tested on: PANC1, PK1, LS513 and PK-45H cells; assay: Cell proliferation over 5 days (CellTiter Glow); conditions: PANC1, PK1, LS513, PK-45H vs HT29 or HS-68 cells harboring KRAS WT
Description: as §2, §5

[6] = tested on: KRAS 35G>T mutant G12V; assay: Indel frequencies at the endogenous target sequences (T7E1 / deep sequencing) after ADGN/Cas9 mRNA/gRNA transfection; conditions: for indel editing and disruption of G12V mutant KRAS (FIG. 1A): SW403, SW480 vs wild type KRAS HT29 cells, T7E1; for indel frequencies: deep sequencing, 72 hours after transfection, Cas9 mRNA 0.15 μg, gRNA 0.2 μg, ADGN-100
Description: as §1, §2, §6, §4

[7] = tested on: SW403 and SW480 cells; assay: Cell proliferation over 5 days (CellTiter Glow); conditions: SW480 and SW403 cells vs HT29 cells harboring KRAS WT
Description: as §2, §6

[8] = SW403 cells (heterozygous 35G>T)

Sequence | indel frequencies ([1]; H23 cells) [%] | indel frequencies ([1]; H358 cells) [%] | indel frequencies ([1]; Mia-PACA cells) [%] | indel editing and disruption of G12C mutant KRAS (FIG. 3A) [1] | inhibition of proliferation or survival (FIG. 3B) [2] | indel editing and disruption of G12V mutant KRAS (FIG. 1A) [6] | indel frequencies [6, 8] [%] | indel frequencies ([6]; SW480 cells (homozygous 35G>T)) [%] | inhibition of proliferation or survival (FIG. 1B) [7] | other results
CTTGTGGTAGTTGGAGCTTG (guide CTTGTGGTAGTTGGAGCTTG; chemistry not given here) [gRNA34T1, sgRNA target KRAS G12C mutation (34G>T); PAM TGG] | 41 | 29 | 34 | induced indel editing and efficient disruption of G12C mutant KRAS | specifically inhibit proliferation or survival of Mia-PACA, H23 and H358 cells |  |  |  |  | 
GTAGTTGGAGCTGATGGCGT (guide GTAGTTGGAGCTGATGGCGT; chemistry not given here) [gRNA35A7, sgRNA target KRAS G12D mutation (35G>A); PAM AGG] |  |  |  |  |  |  |  |  |  | disruption of G12D mutant KRAS (FIG. 2A) [3]: induced efficient disruption of G12D mutant KRAS; indel frequencies ([3]; LS513 cells): 24 ± 2%; indel frequencies ([3]; PANC1 cells): 47 ± 1%; indel frequencies ([3]; PK1 cells): 31 ± 2%; indel frequencies ([3]; PK-45H cells): 35 ± 0.5%; indel frequencies ([4]; HS68 cells (WT KRAS)): 4 ± 0.4%; indel frequencies ([4]; HT-29 cells (WT KRAS)): 7 ± 2%; inhibition of proliferation or survival (FIG. 2B) [5]: specifically inhibit proliferation or survival of PANC1, PK1, LS513 and PK-45H cells
GTAGTTGGAGCTGTTGGCGT (guide GTAGTTGGAGCTGTTGGCGT; chemistry not given here) [gRNA35T8, sgRNA target KRAS G12V mutation (c.35G>T); PAM AGG] |  |  |  |  |  | specifically induced indel editing and efficient disruption | 40 | 51 | specifically inhibit proliferation or survival of SW480 and SW403 cells | 
GTT GGA GCT GAT GGC GT (guide GTTGGAGCTGATGGCGT; chemistry not given here) [gRNA35A6, sgRNA target KRAS G12D mutation (35G>A); PAM AGG] |  |  |  |  |  |  |  |  |  | disruption of G12D mutant KRAS (FIG. 2A) [3]: induced efficient disruption of G12D mutant KRAS; indel frequencies ([3]; LS513 cells): 32 ± 5%; indel frequencies ([3]; PANC1 cells): 60 ± 2%; indel frequencies ([3]; PK1 cells): 37 ± 0.4%; indel frequencies ([3]; PK-45H cells): 48 ± 1%; indel frequencies ([4]; HS68 cells (WT KRAS)): 2 ± 1%; indel frequencies ([4]; HT-29 cells (WT KRAS)): 5 ± 1%; inhibition of proliferation or survival (FIG. 2B) [5]: specifically inhibit proliferation or survival of PANC1, PK1, LS513 and PK-45H cells
GTT GGA GCT GTT GGC GT (guide GTTGGAGCTGTTGGCGT; chemistry not given here) [gRNA35T6, sgRNA target KRAS G12V mutation (c.35G>T); PAM AGG] |  |  |  |  |  | specifically induced indel editing and efficient disruption | 18 | 39 | specifically inhibit proliferation or survival of SW480 and SW403 cells | 
GTT GGA GCT TGT GGC GT (guide GTTGGAGCTTGTGGCGT; chemistry not given here) [gRNA34T3, sgRNA target KRAS G12C mutation (34G>T); PAM AGG] | 48 | 37 | 51 | induced indel editing and efficient disruption of G12C mutant KRAS | specifically inhibit proliferation or survival of Mia-PACA, H23 and H358 cells |  |  |  |  | 
TGGTAGTTGGAGCTGTTGGCGT (guide TGGTAGTTGGAGCTGTTGGCGT; chemistry not given here) [gRNA35T1, sgRNA target KRAS G12V mutation (c.35G>T); PAM AGG] |  |  |  |  |  | specifically induced indel editing and efficient disruption | 35 | 57 | specifically inhibit proliferation or survival of SW480 and SW403 cells | 
TTG TGG TAG TTG GAG CTT G (guide TTGTGGTAGTTGGAGCTTG; sgRNA, chemical modifications not given here, further chemistry not given here) [gRNA34T5, sgRNA target KRAS G12C mutation (34G>T); PAM TGG] | 68 | 67 | 75 | induced indel editing and efficient disruption of G12C mutant KRAS | specifically inhibit proliferation or survival of Mia-PACA, H23 and H358 cells |  |  |  |  | 
